Data published in US11667945B2, “Detection method and detection probe for colibactin and colibactin-producing bacteria” (priority 2017, dated 2023).
Where a SMILES comes first, the peptide text is derived from it. [ ]: non-standard residue; d: D form. The star is where a group is joined. Myristoyl = CCCCCCCCCCCCCC(=O)*; AMC = Cc1cc(=O)oc2cc(N*)ccc12

Assays:
[1] = tested on: colibactin positive bacterium; assay: Detection of colibactin positive bacterium using cultured fecal samples (Example 6); type: cell-based, Escherichia coli; details: colonies from human fecal samples, LB with 100 μM probe, 24 hours, λex 380 mm/λem 460 mm, compared with PCR
Procedure: Fecal samples obtained from human subjects were dissolved in water, applied to a plate comprising a MacConkey medium and cultured at 37° C. for 12 hours. The resultant red-purple colony was picked up, inoculated in LB liquid medium comprising 100 μM probe I and cultured for 24 hours. Fluorescence (λex 380 mm/λem 460 mm) was measured by a plate reader. These samples were checked for the presence or absence of a colibactin positive bacterium by a PCR method in the same manner as in Example 5 and the correlation with the fluorescence intensity generated from probe I was examined.

[2] = tested on: enzyme encoded by ClbP gene; assay: Detection of ClbP enzyme / colibactin-producing E. coli in lyophilized fecal samples by fluorescent probe (Example 3); type: biochemical, Escherichia coli; details: probe 20 μM, lyophilized human feces suspended in milliQ water, 37° C., 24 hours or more, after extraction and unextracted
Procedure: The feces samples (obtained from different 4 human subjects) lyophilized were each scooped 10 times by a spoon (about 40 mg) and suspended in milliQ water (200 μl). To the suspension, the 20 mM DMSO solution of probe 1 was added so as to obtain a final concentration of 20 μM (DMSO final concentration 0.1%). Thereafter, the suspension was shaken at 37° C. and 100 rpm for 24 hours or more. After the reaction, the reaction solution (200 μLS) was taken and centrifuged. The supernatant (200 μL) was directly subjected to detection performed at λex380 mm/λem460 mm (unextracted). The reaction solution (200 μL) was newly taken, sufficiently suspended by adding ethyl acetate (500 μL) and centrifuged. The ethyl acetate layer (450 μL) of the supernatant was collected and concentrated. To the concentrate, milliQ water (200 μL) was added. The mixture was sufficiently suspended and centrifuged. The supernatant (200 μL) was subjected to detection performed at λex380 mm/λem460 mm (after extraction). In FIG. 2, the detection results of 4 fecal samples are shown separately by “feces is present_1” to “feces is present_4”, respectively.

[3] = tested on: colibactin positive bacterium; assay: Detection of colibactin positive bacterium among Escherichia coli separated from colorectal tissue samples (Example 5); type: cell-based; details: 100 μM probe in LB, 37° C., 24 hours, threshold 100; 100 PCR-positive and 100 PCR-negative samples
Description: In this Example, detection of a colibactin positive bacterium was tried by applying probe I to Escherichia coli bacteria separated from colon tissue samples (n=100) in which colibactin biosynthetic genes had been detected by PCR methods and colon tissue samples (n=100) in which colibactin biosynthetic genes had not been detected.
Escherichia coli bacteria were separated by homogenizing a human colorectal tissue sample with physiological saline and smearing the homogenized sample onto a MacConkey plate medium, and culturing it. […] Based on the presence or absence of an amplified fragment as an index, a colibactin positive bacterium or not was evaluated.
To evaluate the sensitivity and accuracy for detecting a colibactin positive bacterium by probe I, 100 Escherichia coli bacterium samples were prepared by separating Escherichia coli bacterium from colon tissue samples in which a colibactin positive bacterium was detected by the above PCR method; and 100 Escherichia coli bacterium samples separated were prepared by separating Escherichia coli bacterium from colon tissue samples in which a colibactin positive bacterium was not detected by the above PCR method. […] Measurement at λex 380 mm/λem 460 mm was carried out by a plate reader. The difference in fluorescence intensity between assay A and assay B (background) was obtained and the threshold was determined as 100. […]

[4] = tested on: colibactin-producing Escherichia coli; assay: Assay using cultured Escherichia coli, colibactin-producing versus non-producing strains (Example 4); type: cell-based; details: probe 20 μM in LB medium, 37° C., 24 hours or more, particularly after extraction; producers 5263, 5491, Nissle vs non-producers 1246, 1649T
Procedure: As Escherichia coli not producing colibactin, 1246 strain and 1649T strain were used. As the colibactin-producing Escherichia coli, 5263 strain, 5491 strain and Nissle strain were used.
Escherichia coli were cultured overnight and seeded (20 μL) in LB medium (2 to 4 mL) and further a 20 mM DMSO solution of probe 1 was added thereto so as to obtain a final concentration of 20 μM (DMSO final concentration: 0.1%), and cultured at 37° C. and 100 rpm for 24 hours or more while shaking. After reaction, the reaction solution (200 μL) was taken and centrifuged. The supernatant (200 μL) was directly subjected to detection performed at λex 380 mm/λem 460 mm (unextracted). The reaction solution (200 μL) was newly taken and ethyl acetate (500 μL) was added thereto. After sufficiently suspended, the suspension was centrifuged. The ethyl acetate layer (450 μL) of the supernatant was recovered and concentrated. To the concentrate, milliQ water (200 μL) was added. The mixture was sufficiently suspended and centrifuged. The supernatant (200 μL) was subjected to detection (after extraction) performed at λex 380 mm/λem 460 mm.

CCCCCCCCCCCCCC(=O)NC(CC(N)=O)C(=O)Nc1ccc2c(C)cc(=O)oc2c1 (stereo not drawn) [probe 1]
detection of colibactin positive bacterium present in fecal samples [1]: highly sensitively and accurately detected | fluorescence of the probe on contact with feces (ClbP dependent cleavage to AMC) [2]: fluorescence was regained | accuracy of detecting a colibactin positive bacterium [3]: 100% | false positive rate (a rate determining a negative bacterium as a positive bacterium) [3]: less than 1% | detection of colibactin-producing Escherichia coli based on the fluorescence intensity of the probe [4]: colibactin-producing Escherichia coli can be detected

CCCCCCCCCCCCCC(=O)N[C@H](CC(N)=O)C(=O)N[C@@H](C)C(=O)Nc1ccc2c(C)cc(=O)oc2c1 [probe 2] (Myristoyl-[dN]-Ala-{AMC})
fluorescence of the probe on contact with feces (ClbP dependent cleavage to AMC) [2]: same results
